Experimental data published in US20050101595A1, “N-containing cycloalkyl-substituted amino-thiazole derivatives and pharmaceutical compositions for inhibiting cell proliferation and methods for their use” (PFIZER INC., priority 2003, published 2005).
Where a name gives a salt, the structure may show the parent alone. Read-outs that look alike come from different tables or passages of the source.

Legend:
HCT-116 cell line = test: Inhibition of cell growth, tetrazolium salt (MTT) assay; format: cell-based; settings: for IC50: Homo sapiens, HCT-116, 120 h, MTT, three to five days, read-out: HCT-116 IC50; for HCT-116 % Inhibition at 0.25 μM: 0.25 μM compound
Method in brief: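 HCT-116 cells in McCoy's 5A medium received compound 4 h after plating (0.5% v/v DMSO) and were incubated three to five days at 37° C, 5% CO2. MTT (0.2 mg/mL final) then added for 4 h; DMSO-solubilized formazan read at 540 nm against 0.5% DMSO-treated controls.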

[1] = target: human CDK4 and genetically truncated (1-264) cyclin D3 (Homo sapiens, UniProt P11802); test: Inhibition of CDK4/Cyclin D Retinoblastoma Kinase Activity; format: biochemical; settings: for Ki: apparent Ki, CDK4/truncated cyclin D3, Rb fragment substrate, 25 μM ATP
Method in brief: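 Read-out: 32P/33P incorporation into Rb fragment (386-928) captured on nitrocellulose, phosphorimager. Enzyme 5 nM CDK4/cyclin D3(1-264) from insect cells; ATP 25 μM, pH 7.4, 30 °C, 20 min (60 min for tight binders). Ki from competitive fits.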

CDK2/Cyclin A = CDK2/Cyclin A (Homo sapiens, UniProt P24941); test: Inhibition of CDK2/Cyclin A Retinoblastoma Kinase Activity; format: biochemical; settings: for Ki: apparent Ki, CDK2/proteolyzed cyclin A, Rb fragment substrate, 25 μM ATP
Method in brief: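 Human CDK2, baculovirus/insect-cell expressed, complexed with proteolyzed cyclin A (10 nM or 19 nM CDK2) phosphorylates an Rb fragment with 25 μM [32P/33P]ATP at pH 7.4, 30° C, for 60 or 75 minutes under initial-rate conditions. Filter-captured radioactivity is read by phosphorimager; apparent Ki from competitive-inhibition fits.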

[2] = 0.1 μM compound, HCT-116, Table 4
[3] = 0.1 μM compound, HCT-116, Table 3

Sequence of human CDK4 and genetically truncated (1-264) cyclin D3 (P11802 whole entry, the tested form may be a part): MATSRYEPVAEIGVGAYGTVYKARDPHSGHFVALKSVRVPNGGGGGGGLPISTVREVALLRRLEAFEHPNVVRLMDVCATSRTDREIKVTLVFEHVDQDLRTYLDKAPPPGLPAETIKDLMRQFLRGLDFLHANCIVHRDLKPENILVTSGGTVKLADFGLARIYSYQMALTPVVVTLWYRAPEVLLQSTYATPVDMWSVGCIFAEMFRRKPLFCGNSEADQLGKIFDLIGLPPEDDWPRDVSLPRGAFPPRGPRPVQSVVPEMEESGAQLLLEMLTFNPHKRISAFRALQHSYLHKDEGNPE
Sequence of human CDK4 and genetically truncated (1-264) cyclin D3 (P30281 1-264 partner): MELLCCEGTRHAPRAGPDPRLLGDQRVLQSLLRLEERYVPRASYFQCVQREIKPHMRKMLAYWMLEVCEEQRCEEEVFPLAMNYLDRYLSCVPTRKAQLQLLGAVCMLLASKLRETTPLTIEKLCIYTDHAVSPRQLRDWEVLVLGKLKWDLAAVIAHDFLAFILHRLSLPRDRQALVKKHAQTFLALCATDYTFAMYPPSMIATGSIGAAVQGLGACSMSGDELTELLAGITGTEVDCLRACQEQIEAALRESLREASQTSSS

| SMILES | IC50 (HCT-116 cell line; first HCT-116 column (c4)) [µM] | IC50 (HCT-116 cell line; second HCT-116 column (c5)) [µM] | Ki [1] [µM] | Ki (CDK2/Cyclin A) [µM] | CDK4 % Inhibition at 0.03 μM ([1]; at 0.03 μM) [%] | CDK2 % Inhibition at 0.03 μM (CDK2/Cyclin A; at 0.03 μM) [%] | HCT-116 % Inhibition at 0.1 μM (HCT-116 cell line; HCT-116 cells, at 0.1 μM) [%] | HCT-116 5 Inhibition at 0.25 μM (HCT-116 cell line; HCT-116 cells) | other results |
| --- | --- | --- | --- | --- | --- | --- | --- | --- | --- |
| CN(C)CCOc1nc(S(=O)(=O)N2CCC(Nc3nc(N)c(C(=O)c4c(F)cccc4F)s3)CC2)cn1C [Example H25, (4-Amino-2-{1-[2-(2-dimethylamino-ethoxy)-1-methyl-1H-imidazole-4-sulfonyl]-piperidin-4-ylamino}-thiazol-5-yl)-(2,6-difluoro-phenyl)-methanone Hydrochloride Salt] | > 5 | > 5 | 0.083 | 0.02 | – | – | – | – | – |
| Nc1nc(NC2CCN(S(=O)(=O)c3cc(Cl)sc3Cl)CC2)sc1C(=O)c1c(F)cccc1F [Example F13, 1-{4-Amino-2-[1-(2,5-dichloro-thiophene-3-sulfonyl)-piperidin-4-ylamino]-thiazol-5-yl}-1-(2,6-difluoro-phenyl)-methanone] | 0.61 | 2.6 | 0.0058 | 0.0087 | – | – | – | – | – |
| Nc1nc(NC2CCN(S(=O)(=O)c3ccc(NCC(O)CO)nc3)CC2)sc1C(=O)c1c(F)cccc1F (centres unmarked) [Example G19, 1-(4-Amino-2-{1-[6-(2,3-dihydroxy-propylamino)-pyridine-3-sulfonyl]-piperidin-4-ylamino}-thiazol-5-yl)-1-(2,6-difluoro-phenyl)-methanone] | 4.1 | > 5 | 0.0034 | 0.002 | – | – | – | – | – |
| Nc1nc(NC2CCN(C(=O)CCN3CCCCC3)CC2)sc1C(=O)c1c(F)cccc1F [Example D3, 1-(4-[4-Amino-5-(2,6-difluoro-benzoyl)-thiazol-2-ylamino}-piperidin-1-yl)-3-piperidin-1-yl-propan-1-one] | > 5 | – | 0.071 | 0.4 | – | – | – | – | – |
| CN(C(=O)N1CCC(Nc2nc(N)c(C(=O)c3c(F)cccc3F)s2)CC1)c1ccccc1 [Example Q1] | – | – | – | – | – | – | – | – | HCT-116 % Inhibition at 0.1 μM (HCT-116 cell line; [2]): 0%; HCT-116 % Inhibition at 0.25 μM (HCT-116 cell line; HCT-116, Table 4): 38%; CDK4 % Inhibition at 0.03 μM ([1]; 0.03 μM compound, Table 4): 31%; CDK2 % Inhibition at 0.03 μM (CDK2/Cyclin A; 0.03 μM compound, Table 4): −7% |
| CN(C)CCOc1ccc(S(=O)(=O)N2CCC(Nc3nc(N)c(C(=O)c4c(F)cccc4F)s3)CC2)cn1 [Example H3, 1-(4-Amino-2-{1-[6-(2-dimethylamino-ethoxy)-pyridine-3-sulfonyl]-piperidin-4-ylamino}-thiazol-5-yl)-1-(2,6-difluoro-phenyl)-methanone Hydrochloride] | 0.051 | 0.32 | 0.00067 | 0.0018 | – | – | – | – | – |
| Nc1nc(NC2CCN(S(=O)(=O)c3cccc(C(=O)O)c3)CC2)sc1C(=O)c1c(F)cccc1F [Example P29] | – | – | – | – | – | – | – | – | HCT-116 % Inhibition at 0.1 μM (HCT-116 cell line; [3]): 0%; HCT-116 % Inhibition at 0.25 μM (HCT-116 cell line; HCT-116, Table 3): 21%; CDK4 % Inhibition at 0.03 μM ([1]; 0.03 μM compound, Table 3): 56%; CDK2 % Inhibition at 0.03 μM (CDK2/Cyclin A; 0.03 μM compound, Table 3): 35% |
| Nc1nc(NC2CCN(S(=O)(=O)c3ccc(CCN4CCC[C@H]4CO)nc3)CC2)sc1C(=O)c1c(F)cccc1F [Example N9, [4-Amino-2-(1-{6-[2-(2S-hydroxymethyl-pyrrolidin-1-yl)-ethyl]-pyridine-3-sulfonyl}-piperidin-4-ylamino)-thiazol-5-yl]-(2,6-difluoro-phenyl)-methanone Hydrochloride Salt.] | 0.07 | 0.7 | 0.00026 | 0.0008 | – | – | – | – | – |
| CC(C)OC(=O)NS(=O)(=O)N1CCC(Nc2nc(N)c(C(=O)c3c(F)cccc3F)s2)CC1 [Example E5, [1-(4-{4-Amino-5-[1-(2,6-difluoro-phenyl)-methanoyl]-thiazol-2-ylamino}-piperidin-1-yl)-sulfonyl]-carbamic Acid Isopropyl Ester] | > 5 | > 5 | 0.17 | 0.038 | – | – | – | – | – |
| Nc1nc(NC2CCN(S(=O)(=O)c3c(Cl)cc(C(F)(F)F)cc3Cl)CC2)sc1C(=O)c1c(F)cccc1F [Example P82] | – | – | – | – | – | – | – | – | HCT-116 % Inhibition at 0.1 μM (HCT-116 cell line; [3]): 17%; HCT-116 % Inhibition at 0.25 μM (HCT-116 cell line; HCT-116, Table 3): 24%; CDK4 % Inhibition at 0.03 μM ([1]; 0.03 μM compound, Table 3): 12%; CDK2 % Inhibition at 0.03 μM (CDK2/Cyclin A; 0.03 μM compound, Table 3): −23% |
| CC(C)(C)NCCOc1ccc(S(=O)(=O)N2CCC(Nc3nc(N)c(C(=O)c4c(F)cccc4F)s3)CC2)cn1 [Example H20, (4-Amino-2-{1-[6-(2-tert-butylamino-ethoxy)-pyridine-3-sulfonyl]-piperidin-4-ylamino}-thiazol-5-yl)-(2,6-difluoro-phenyl)-methanone Hydrochloride Salt] | 0.38 | 3 | 0.00051 | 0.0015 | – | – | – | – | – |
| Nc1nc(NC2CCN(C(=O)NCCCl)CC2)sc1C(=O)c1c(F)cccc1F [Example O32] | – | – | – | – | – | – | – | – | HCT-116 % Inhibition at 0.25 μM (HCT-116 cell line; HCT-116, Table 2): 99%; CDK4 % Inhibition at 0.03 μM ([1]; 0.03 μM compound, Table 2): 12%; CDK2 % Inhibition At 0.03 μM (CDK2/Cyclin A; 0.03 μM compound, Table 2): 30% |
| Nc1nc(NC2CCN(C(=O)CCC3CCCC3)CC2)sc1C(=O)c1c(F)cccc1F [Example Q58] | – | – | – | – | – | – | – | – | HCT-116 % Inhibition at 0.1 μM (HCT-116 cell line; [2]): 0%; HCT-116 % Inhibition at 0.25 μM (HCT-116 cell line; HCT-116, Table 4): 25%; CDK4 % Inhibition at 0.03 μM ([1]; 0.03 μM compound, Table 4): 53%; CDK2 % Inhibition at 0.03 μM (CDK2/Cyclin A; 0.03 μM compound, Table 4): 29% |

Continued, in another order:

| IC50 (HCT-116 cell line; first HCT-116 column (c4)) [µM] | IC50 (HCT-116 cell line; second HCT-116 column (c5)) [µM] | Ki [1] [µM] | Ki (CDK2/Cyclin A) [µM] | CDK4 % Inhibition at 0.03 μM ([1]; at 0.03 μM) [%] | CDK2 % Inhibition at 0.03 μM (CDK2/Cyclin A; at 0.03 μM) [%] | SMILES | HCT-116 % Inhibition at 0.1 μM (HCT-116 cell line; HCT-116 cells, at 0.1 μM) [%] | HCT-116 5 Inhibition at 0.25 μM (HCT-116 cell line; HCT-116 cells) | other results |
| --- | --- | --- | --- | --- | --- | --- | --- | --- | --- |
| – | – | – | – | 8 | 14 | Nc1nc(NC2CCN(C(=O)c3c(Cl)cc(Cl)cc3Cl)CC2)sc1C(=O)c1c(F)cccc1F [Example R56] | 0 | 43 | – |
| – | – | – | – | 49 | 4 | Cc1onc(-c2ccccc2Cl)c1C(=O)N1CCC(Nc2nc(N)c(C(=O)c3c(F)cccc3F)s2)CC1 [Example R11] | 0 | 37 | – |
| – | – | – | – | 66 | 41 | COc1ccc(Oc2ccc([N+](=O)[O-])cc2C(=O)N2CCC(Nc3nc(N)c(C(=O)c4c(F)cccc4F)s3)CC2)cc1 [Example R40] | 0 | 43 | – |
| – | – | – | – | 19 | 6 | Nc1nc(NC2CCN(C(=O)c3cccnc3Oc3ccccc3)CC2)sc1C(=O)c1c(F)cccc1F [Example R27] | 0 | 43 | – |
| – | – | – | – | −4 | 6 | CCCCC(CC)C(=O)N1CCC(Nc2nc(N)c(C(=O)c3c(F)cccc3F)s2)CC1 (centres unmarked) [Example R168] | 0 | 42 | – |
| – | – | – | – | 72 | 56 | Nc1nc(NC2CCN(C(=O)c3cc(Cl)ccc3Cl)CC2)sc1C(=O)c1c(F)cccc1F [Example R108] | 5 | 58 | – |
